For test [1], the target named is T1, Holo Prostaglandin Endoperoxide Synthase (cyclooxygenase activity) (Ovis aries, UniProt P05979).
T1 construct: PGHS was purified from ram seminal vesicles; from tissue; host or cells: ram seminal vesicles
T1 sequence (P05979 25-600): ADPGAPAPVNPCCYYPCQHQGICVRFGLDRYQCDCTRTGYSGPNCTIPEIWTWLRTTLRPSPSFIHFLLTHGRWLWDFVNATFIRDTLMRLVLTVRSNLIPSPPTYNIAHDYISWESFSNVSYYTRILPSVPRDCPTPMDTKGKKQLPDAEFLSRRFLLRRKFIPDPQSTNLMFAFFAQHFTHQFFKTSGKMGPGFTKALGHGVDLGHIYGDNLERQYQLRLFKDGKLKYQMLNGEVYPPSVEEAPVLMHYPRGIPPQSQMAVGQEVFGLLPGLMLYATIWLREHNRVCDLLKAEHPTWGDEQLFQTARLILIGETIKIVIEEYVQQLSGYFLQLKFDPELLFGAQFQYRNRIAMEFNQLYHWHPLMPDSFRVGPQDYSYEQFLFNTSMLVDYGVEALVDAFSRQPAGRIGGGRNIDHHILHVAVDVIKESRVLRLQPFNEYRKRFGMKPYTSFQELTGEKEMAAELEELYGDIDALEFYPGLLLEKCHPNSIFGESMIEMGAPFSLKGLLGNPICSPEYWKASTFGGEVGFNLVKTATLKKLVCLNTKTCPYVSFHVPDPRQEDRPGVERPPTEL
The test is described as follows: Instantaneous inactivation of the cyclooxygenase activity of holo PGHS (oxygen consumption). It counts as biochemical, ram (seminal vesicles). Conditions: for IC50: enzyme 0.25 μM, oxygen consumption. The method, then: (§1) PGHS was purified from ram seminal vesicles.
(§2) Oxygen consumption was measured at 37° C. with a Gilson model 5/6 oxygraph equipped with a clark electrode and a thermostatted cuvette. Enzyme aliquots were added to 100 mM Tris-HCl at pH 8 containing 500 μM phenol and […] hematin. Oxygen uptake was initiated by the addition of 100 mM sodium arachidonate, and the initial reaction velocity was determined from the linear portion of the oxygen uptake curve.
The reaction mixture was allowed to reconstitute for 1 min and then varying inhibitor concentration were added to the reaction mixture. As quickly as possible, the cyclooxygenase reaction was initiated by the addition of 100 mM sodium arachidonate. […]

Test [2] concerns the target T2, holo PGHS (cyclooxygenase activity) (Ovis aries, UniProt P05979).
T2 sequence (P05979 25-600): T1 sequence (P05979 25-600)
The test is described as follows: Time dependent inactivation of cyclooxygenase activity. In kind it is biochemical, ram (seminal vesicles). Conditions: enzyme 0.25 μM; for Oxygen Consumption, T = 0: control 221; for Oxygen Consumption, T = 30: T = 30 (min), control 210; for Oxygen Consumption, T = 60: control 211. The method, then:
as §1, §2
A reaction mixture containing a 100 fold excess of the inhibitor(versus the enzyme concentration) (from a 10 mM stock in DMSO) and holo PGHS (5.3 mg/mL) (reconstituted with one equivalent of hematin) was incubated in a eppendorf tube at room temperature. Aliquots of the incubation mixture, at time intervals of t=0, 30 and 60 min were added to the oxygraph cell already containing 1.25 mL Tris HCL, 100 mM, pH 8, at 37° C., 500 μM phenol and 25 μL of 50 μM hematin. The cyclooxygenase reaction was initiated by the addition of 13 μL of 10 mM sodiumarachidonate in 10% MeOH (final concentration of AA was 100 μM). The oxygen consumption was measured from the linear portion of the O2 uptake curve.

The test system of test [3] is holo PGHS. Conditions: Ser 530 in sheep (Ser 529 in humans); cited from earlier work.
Test [4] concerns the target T3, holo PGHS (peroxidase activity) (Ovis aries, UniProt P05979).
T3 construct: PGHS was purified from ram seminal vesicles; from tissue; host or cells: ram seminal vesicles
T3 sequence (P05979 25-600): T1 sequence (P05979 25-600)
The test is described as follows: Instantaneous inactivation of peroxidase activity (guaiacol oxidation). In kind it is biochemical, ram (seminal vesicles). Conditions: for IC50: enzyme 0.25 μM. On the procedure: as §1
Enzyme aliquots were added to 100 mM Tris HCl (pH 8) containing […] heme, 500 μM guaiacol in disposible cuvettes. Reaction was initiated by the addition of 400 μM H2 O2.
This reaction mixture was treated with a given concentration of the inhibitor and then as quickly as possible the peroxidase reaction was initiated by the addition of 0.4 mM H2 O2. The initial rates of oxidation were measured for 20 sec at a repeat rate of 1 second. (Table 4)

In test [5] the target is T4, PGHS (cyclooxygenase activity) (Ovis aries, UniProt P05979).
T4 construct: PGHS was purified from ram seminal vesicles; from tissue; host or cells: ram seminal vesicles
T4 sequence (P05979 25-600): T1 sequence (P05979 25-600)
As to the kind of experiment: IC50 for inactivation of cyclooxygenase activity of PGHS after 30 min incubation. It counts as biochemical, ram (seminal vesicles). On the procedure:
as §1, §2
Varying inhibitor concentrations were incubated with reconstituted holo PGHS (final concentration in the oxygraph cell was 250 nM) at room temperature for 30 min. Aliquots of this incubation mixture were added to the oxygraph cell containing 100 mM Tris-HCl at pH 8 with 500 μm of phenol and 1 μM hematin. The reaction mixture was allowed to reconstitute for 1 min and the cyclooxygenase reaction was initiated by the addition of 100 mM sodium arachidonate. (Table 1)
In all experiments the enzyme concentrations was 0.25 μM.

In test [6] the test system is PGHS (cyclooxygenase activity). The test is described as follows: Inactivation of cyclooxygenase activity of PGHS by cysteine specific reagents. It counts as biochemical. From the text:
(§3) Thiyl radicals (as reviewed in Shoeneich, 1992) can be potentially generated from cysteines present in PGHS, in the catabolism of arachidonic acid. […] Site-directed mutagenesis experiments to mutate these cysteines to serines and their corresponding effect on prostaglandin biosynthesis are presently being carried out.

Test [7] relates to PGHS (peroxidase activity). The test is described as follows: Inactivation of peroxidase activity of PGHS by cysteine specific reagents. It counts as biochemical.
Description: as §3

In test [8] the test system is holo PGHS. As to the kind of experiment: Inactivation of holo PGHS. It counts as biochemical.
Description: as §3

The subject of another test is mouse. Conditions: doses much below those required by indomethacin; cited from earlier work.
The subject of another test is guinea pigs. Conditions: doses much below those required by indomethacin; cited from earlier work.
The test system of another test is cyclooxygenase. Conditions: cited from earlier work.
In test [9] the target is T5, cyclooxygenase activity of PGHS (Ovis aries, UniProt P05979).
T5 sequence (P05979 25-600): T1 sequence (P05979 25-600)
As to the kind of experiment: Inhibition of cyclooxygenase activity of PGHS by analog 2. In kind it is biochemical. From the text:
Preliminary structure-activity studies on compounds with structural similarity indicate the position of oxygen on the omega side chain and the stereochemistry on the oxobicycloheptane ring as the governing factors in the inhibition.
The basis for the inhibitory activity of a given NSAID depends on the interaction of the NSAID with the active site of the enzyme it inhibits. A working model for the active site of fatty acid cyclooxygenase with the pattern recognition of known inhibitors as well as conformational minimizations of the natural substrate AA has been constructed. The Squibb group recently described a novel series of 7-oxabicycloheptylpro stanoic acid derivatives that inhibit AA-induced platelet aggregation and AA oxygenation by platelet and bovine seminal microsomes. […]

The next test concerns PGHS protein. As to the kind of experiment: Mechanistic studies: conformational change in the PGHS protein.
The conditions of test [10]: cited from earlier work.
Where [11] appears, read: enzyme 0.25 μM, 30 min incubation with inhibitor, read-out: IC50 for inactivation of cyclooxygenase activity of PGHS.
Setting [12] is: read-out: IC50 (aspirin analogs 44 and 45).

Where two headings read alike, the source gives them in different places. A value given as a limit tells only on which side of the number the result lay.

Consider 20 molecules from patent US5475021A, “Compounds and compositions for inhibition of cyclooxygenase activity” (Vanderbilt University, priority 1993, dated 1995).

The molecule “2-[2-(N-Maleimidoethoxy)]benzoic acid [Compound 7]” registered an IC50 in test [1] of 140 µM. In test [2] (inhibitor 16 μM), the “Oxygen Consumption, T = 0” value was 180 µM/min and the “Oxygen Consumption, T = 30” value came out at 27 µM/min. Further, in test [2] (inhibitor 16 μM, T = 60 (min)), the “Oxygen Consumption, T = 60 (symbol)” value is “--b”.
Consider `CC(=O)Oc1ccccc1C(=O)O` [Aspirin], for which the “acylation of Ser 530 of PGHS” value in the test on holo PGHS [3] was “inactivates the cyclooxygenase activity of holo PGHS by regioselective acylation of Ser 530”.
In the case of `O=C(O)CCCCCN1C(=O)C=CC1=O` [Compound 1, N-6-(Maleimido)hexanoic acid], the IC50 in test [1] is more than 800 µM. In [2] (inhibitor 16 μM), the “Oxygen Consumption, T = 0” value was 212 µM/min and the “Oxygen Consumption, T = 30” value turned out to be 205 µM/min. Further, the “Oxygen Consumption, T = 60” value in test [2] (inhibitor 16 μM, T = 60 (min)) is 204 µM/min. In [4], this molecule registered an IC50 of more than 800 µM.
In [1], `O=C(O)CCCCCCN1C(=O)C=CC1=O` [Compound 2, N-7-(Maleimido)heptanoic acid] had an IC50 of 570 µM. Moreover, in test [2] (inhibitor 16 μM), the “Oxygen Consumption, T = 0” value worked out at 195 µM/min and the “Oxygen Consumption, T = 30” value turned out to be 142 µM/min. The “Oxygen Consumption, T = 60” value in test [2] (inhibitor 16 μM, T = 60 (min)) turned out to be 106 µM/min. Further, the concentration for half-maximal inhibition (IC50) in test [4] was more than 800 µM. In addition, the remaining activity at 800 µM in [4] (pH 8, at 800 μM) was found to be 81%.
`O=C(O)CCCCCCCCN1C(=O)C=CC1=O` [Compound 4, 9-(Maleimido)-1-nonanoic acid] registered an IC50 in test [1] of 26 µM. Moreover, in test [2] (inhibitor 10 μM), the “Oxygen Consumption, T = 0” value is 203 µM/min and the “Oxygen Consumption, T = 30” value came to 121 µM/min. Also, the “Oxygen Consumption, T = 60” value in test [2] (inhibitor 10 μM, T = 60 (min)) worked out at 68 µM/min.
Turning to `O=C(O)c1ccccc1OCCN1C(=O)C=CC1=O` [Compound 6 (Example 1), 2-[2-(N-Maleimidoethoxy)]benzoic acid], the “instantaneous inactivation of cyclooxygenase activity” value in [1] is reported as “failure”.
On to `CCCCCCCCN1C(=O)C=CC1=O` [Compound 8], for which the IC50 in test [5] (setting [11]) amounted to 250 µM.
Same read-out and setting: in the case of `CCCCCCCCCN1C(=O)C=CC1=O` [Compound 9] it was 50 µM; in that of `CCCCCCCCCCN1C(=O)C=CC1=O` [Compound 10], 27 µM; in that of `Cc1ccccc1CN1C(=O)C=CC1=O` [Compound 11], 9 µM.
On the same count and under the same terms, in the case of `O=C(O)c1ccc(CN2C(=O)C=CC2=O)cc1` [Compound 12] it was 12 µM; in that of `O=C(O)c1ccccc1OCCN1C(=O)C=CC1=O` [Compound 13], 40 µM.
As for `O=C(O)CCCCCCCN1C(=O)CCC1=O` [Compound 39, N-8-(Succinimido)octanoic acid], the “instantaneous inactivation of cyclooxygenase activity” value in test [1] is “did not inactivate PGHS”; in [1] (listed as corresponding succinimide), “did not display any inactivation at analogous concentrations and at higher concentrations”. The “inhibition of the enzyme at 500 fold excess” value in test [1] (500 fold excess) is “did not inhibit the enzyme, even at a 500 fold excess”.
For the molecule `CC(=O)Oc1cc(N2C(=O)C=CC2=O)ccc1C(=O)O` [Compound 44], the “Inhibition of cyclooxygenase at 200 μM (footnote a, Table 2)” value in test [5] (200 μM, 30 min incubation) is reported as “No significant inhibition observed”. For the same molecule, the IC50 in test [5] (setting [12]) is more than 200 µM.
With `CC(=O)Oc1ccc(N2C(=O)C=CC2=O)cc1C(=O)O` [Compound 45], the concentration for half-maximal inhibition (IC50) in [5] (setting [12]) is 29 µM.
For the molecule `CC(=O)n1ccnc1` [N-acetylimidazole], the “acylation of Ser 530 of PGHS” value in the test on holo PGHS [3] is reported as “did not result in regioselective acetylation”.
`CCN1C(=O)C=CC1=O` [NEM, N-ethylmaleimide]: the “inactivation of cyclooxygenase activity by cysteine specific reagent” value in [6] is “time- and concentration-dependent inactivation”. Moreover, the “inactivation of peroxidase activity by cysteine specific reagent” value in test [7] was “time- and concentration-dependent inactivation”. The “inactivation of holo PGHS” value in the test with holo PGHS [8] is on record as “inactivates holo”.
Take `CCCCCCOCC1C2CCC(O2)C1CC=CCCCC(=O)O` (centres unmarked) [analog 1]: the “prevention of AA-induced sudden death” value in the test with mouse is “prevents AA-induced sudden death in the mouse”. The “prevention of AA-induced changes in lung mechanics” value with guinea pigs is recorded as “AA-induced changes in lung mechanics in guinea pigs at doses much below those required for similar effects by indomethacin”. Besides, the “inhibition of cyclooxygenase activity in vitro” value with cyclooxygenase was “inhibition of cyclooxygenase activity in vitro”.
Turning to `CCCCCCOCC1C2CCC(O2)C1CC=CCCC(C)(C)C(=O)O` (centres unmarked) [analog 2], in test [9], the “time-dependent inhibition of cyclooxygenase activity” value was “potent time-dependent inhibitor”. In test [9] (enzyme concentration 140 nM), half-maximal inhibition (IC50) required 0.08 µM. In addition, the IC100 in test [9] (enzyme concentration 140 nM, read-out: concentration with complete inhibition) is 0.15 µM. Further, the “conformational change in the PGHS protein” value in the test on PGHS protein was “induces a conformational change in the PGHS protein”. Further, the “inhibition of cyclooxygenase activity in vitro” value in the test on cyclooxygenase is recorded as “displays the same activities as analog 1”. For the same molecule, in test [10], the “duration of action in vivo, relative to analog 1” value is “longer duration of action in vivo”.
“N-11-(Maleimido)undecanoic acid [Compound 5]” had an IC50 in test [1] of 37 µM. Moreover, in [2] (inhibitor 10 μM), the “Oxygen Consumption, T = 0” value is 207 µM/min and the “Oxygen Consumption, T = 30” value came to 178 µM/min. In test [2] (inhibitor 10 μM, T = 60 (min)), the “Oxygen Consumption, T = 60” value is 81 µM/min.
